Test results taken from patent US20120004282A1, “RNA Interference Mediated Inhibition of the Intercellular Adhesion Molecule 1 (ICAM-1) Gene Expression Using Short Interfering Nucleic Acid (siNA)” (Merck Sharp & Dohme Corp,, priority 2009, published 2012).
[invAb] = inverted abasic unit; m = 2'-O-methyl; r = 2'-OH (RNA); f = 2'-fluoro

Key:
Format in all cases: cell-based, human
ICAM-1 protein = assay: In situ ICAM-1 ELISA for surface ICAM-1 in INF-γ/TNF-α stimulated Calu-1 cells; details: relative to UC3
Protocol: In a 96-well plate, 5,000 Calu-1 cells/well were seeded in 100 uL of complete growth media and incubated overnight at 37 C with 5% CO2. The cells were transfected with siNAs using RNAiMax (Invitrogen, Cat# 13778-150); final concentrations of siRNAs are 10 nM-0.0000097 nM. The amount of RNAiMax in each well is 0.3 uL. The siNAs were incubated for 6 hours. The medium was replaced with 95 uL of fresh complete growth medium and add 5 uL/well of INF-γ/TNF-α at 10 ng/ml final concentration. The cells were incubated for 24, 48, and 72 hours.
In situ ELISA for surface ICAM-1 was performed as follows. The cells were washed ×2 in PBS. The wells were pre-blocked with Super Block buffer (Pierce, Cat # 37535) for 1.5 hours at 37° C. The cells were washed ×3 with PBS. The primary monoclonal antibody (Abcam, clone MEM-111, Cat ab2213) was diluted at 1 in 3000 in Super Block buffer. 50 μl of primary antibody was added per well. The wells were shook gently at RT for 1 hour. The cells were washed ×3 with PBS. The rabbit polyclonal secondary antibody (Abcam, Cat ab6728)was diluted 1:1000 in Super Block buffer. 50 μl secondary antibody were added per well. The mixture was incubated at 37° C. for 1 hour. The cells were washed ×3 with PBS. 50 μl of TMB solution (Sigma, Cat# T-8665) was added per well and incubated in the dark for 10 minutes. 50 μl Stop solution was added. The absorbance was read at 450 nm.
The effects of siNAs on ICAM-1 protein level were compared to each other and to the effect of the universal control using a multiple comparison ANOVA test to obtain a 95% confidence interval.
Various siNAs were also evaluated for their potential to knock-down ICAM-1 protein using an ELISA assay. Six siNAs were tested in an ICAM-1 ELISA assay across a range of concentrations of siNAs. The absorbance of each sample was normalized to the average absorbance obtained from the wells that were not stimulated with INF-γ/TNF-α (n=6). These wells served as a background control (see Table 6).

OAS1 mRNA [1] = assay: Endosomal TLR3 mediated immunostimulation, OAS1 mRNA increase in NHBE cells; details: Up to 100 nM, siNA formulated with delivery vehicle
Protocol: (§1) A series of probes and primers were used for the detection of mRNA transcripts of ICAM-1, OAS1, and GAPDH (as control/normalisation) in the human cell lines. The assays were performed on an ABI 7900HT instrument according to the manufacturer's instructions.
(§2) With TaqMan data, critical threshold values (Ct) were converted to copy numbers corresponding to the particular gene analysed in each well of the 384 well plate. Six identical wells were prepared in each plate for a given treatment. […] Determination of the percentage coefficient of variation (CV) (% C.V.=[standard deviation/average]*100) allowed the omitting of wells whose value was an outlier (so that % C.V.<25). Relative abundance (aka relative expression) of a gene was determined by dividing the mean copy number of that gene with its GAPDH counterpart in that particular sample.
(§3) Calu-1 or NHBE cell were treated as above in Example 2 and used for the measurement of endosomal TLR3 mediated immunostimulation, with the inclusion of polyI:C as a positive control for OAS1 mRNA upregulation. For the measurement of membrane bound TLR3 mediated immunostimulation the Calu 1 cells were cultured at 12000 cells/per 96 well and siNAs administered in PBS in the absence of a delivery vehicle at a concentration of 100 nM, 30 nM, 10 nM, 3 nM, 1 nM, and 0.3 nM.
The endosomal TLR3 mediated immunostimulation was also measured by recording the percent increase in OAS1 mRNA levels when the NHBE cells were transfected with the siNAs that had been formulated with the delivery vehicle (the Gemini surfactant GSC170 Dab—example 37 in WO03/82809) (percent increase in OAS1 mRNA levels relative to the Gemini delivery vehicle control). The TLR3 agonist Poly I: C is used as a positive control for OAS1 mRNA induction.

OAS1 mRNA [2] = assay: Membrane and endosomal TLR3 mediated immunostimulation, OAS1 mRNA increase in Calu 1 cells; details: Up to 100 nM
Protocol: Human lung epithelial carcinoma (Calu-1) cells were grown at 37 degrees in the presence of 5% CO2 and cultured in […] supplemented with 10% fetal bovine serum, glutamine and antibiotics.
as §1, §2, §3

| Substance | ICAM-1 Protein % KD 24 h, 10 nM (ICAM-1 protein) | ICAM-1 Protein % KD 48 h, 10 nM (ICAM-1 protein) | ICAM-1 Protein % KD 72 h, 10 nM (ICAM-1 protein) | Endosomal TLR3 mediated Immunostimulation OAS1 mRNA increase NHBE cells n = 3donors (OAS1 mRNA [1]) | Membrane & Endosomal TLR3 mediated Immunostimulation OAS1 mRNA increase Calu 1 Cells (OAS1 mRNA [2]) |
| --- | --- | --- | --- | --- | --- |
| 29288-DC: siNA duplex, ICAM-1 target site 2046 (h); sense B cAuuGuccucAGucAGAuA TTB; antisense UAUcuGAcuGAGGAcAAuGUU (sense CAUUGUCCUCAGUCAGAUATT; antisense UAUCUGACUGAGGACAAUGUU; sense: DNA at AGT, 2'-fluoro at CU, [invAb] at 5' end, 3' end, backbone not given here; antisense: sugars from the 5' end rrrffmmffmmmmrfmmfmmm, backbone not given here) | 52% | 52% | 47% | No significant effect | No significant effect |
| 29282-DC: siNA duplex, ICAM-1 target site 2113 (h); sense B cGcAucuGAucuGuAGucA TTB; antisense UGAcuAcAGAucAGAuGcGUU (sense CGCAUCUGAUCUGUAGUCATT; antisense UGACUACAGAUCAGAUGCGUU; sense: DNA at AGT, 2'-fluoro at CU, [invAb] at 5' end, 3' end, backbone not given here; antisense: sugars from the 5' end rrrffmfmmmffmmmfmfmmm, backbone not given here) | 87% | 64% | 61% | No significant effect | No significant effect |
| 29286-DC: siNA duplex, ICAM-1 target site 1838 (h); sense B cGGAAGAucAAGAAAuAcA TTB; antisense UGUAuuucuuGAucuuccGUU (sense CGGAAGAUCAAGAAAUACATT; antisense UGUAUUUCUUGAUCUUCCGUU; sense: DNA at AGT, 2'-fluoro at CU, [invAb] at 5' end, 3' end, backbone not given here; antisense: sugars from the 5' end rrrmffffffmmffffffmmm, backbone not given here) | 59% | 54% | 43% | No significant effect | No significant effect |
| 29285-DC: siNA duplex, ICAM-1 target site 537 (h); sense B GGAAcAAccGGAAGGuGuA TTB; antisense UACAccuuccGGuuGuuccUU (sense GGAACAACCGGAAGGUGUATT; antisense UACACCUUCCGGUUGUUCCUU; sense: DNA at AGT, 2'-fluoro at CU, [invAb] at 5' end, 3' end, backbone not given here; antisense: sugars from the 5' end rrrmffffffmmffmffffmm, backbone not given here) | 59% | 52% | 36% | No significant effect | No significant effect |
| 29284-DC: siNA duplex, ICAM-1 target site 1141 (h); sense B cucAGucAGuGuGAccGcA TTB; antisense UGCGGucAcAcuGAcuGAGUU (sense CUCAGUCAGUGUGACCGCATT; antisense UGCGGUCACACUGACUGAGUU; sense: DNA at AGT, 2'-fluoro at CU, [invAb] at 5' end, 3' end, backbone not given here; antisense: sugars from the 5' end rrrmmffmfmffmmffmmmmm, backbone not given here) | 64% | 53% | 44% | No significant effect | No significant effect |
| 48722-DC: siNA duplex, ICAM-1 target site 2240 (h); sense B GAcAuAcAAcuGGGAAAuA TTB; antisense UAUuucccAGuuGuAuGucUU (sense GACAUACAACUGGGAAAUATT; antisense UAUUUCCCAGUUGUAUGUCUU; sense: DNA at AGT, 2'-fluoro at CU, [invAb] at 5' end, 3' end, backbone not given here; antisense: sugars from the 5' end rrrfffffmmffmfmfmffmm, backbone not given here) | 71% | 53% | 43% | No significant effect | No significant effect |
